One may read the AUC(0-t) as the area under the concentration-time curve up to a stated or last time point. Low values mean less exposure, high ones more exposure. For orientation: Cmax means the maximum level reached in the sampled fluid or tissue. The Tmax is the time at which the peak concentration occurs. In general, AUC(0-inf) refers to the area under the concentration-time curve extrapolated to infinity. Low readings indicate low exposure, high ones high exposure.

For data set [1] the following is noted: in vivo, 75 mg.
The nature of a further data set: clinical. To be noted: human, in vivo, 75 mg.
Data set [2] can be described thus: ABC-04 phase Ib trial: dose limiting toxicity, adverse events, compliance. Format: in vivo, patients. As to the method: Four dose levels were included in the protocol for potential evaluation; 75 mg bd, 50 mg bd, 75 mg once daily (od) and 50 mg od. The first dose level evaluated was 75 mg bd. Patients were recruited in cohorts of three. The number of patients experiencing a DLT during the first cycle of treatment in each cohort was used to decide the dose level at which to recruit the next cohort. If no patients experienced a DLT, then that dose level was the recommended dose. If one patient experienced a DLT, the cohort was to be expanded to six patients. If > 2 patients experienced DLT, then subsequent patients were to be entered into the next lower dose level. […]
Patients were assessed prior to starting treatment and at regular intervals throughout treatment. […] All AEs occurring between the date of signing consent and 30 days after the last dose of any trial treatment were recorded. […] Disease status was assessed by computed tomography (CT) scan, with or without a liver magnetic resonance (MR) scan, prior to registration, after cycles 4 and 8 and then subsequently every 12 weeks until disease progression. Patients with measurable disease at baseline were assessed for objective response according to RECIST v1.1 [10]. For patients with non-measurable disease, objective response was not assessed and progressive disease was documented by the appearance of new lesions or by symptomatic deterioration. […]

Data set [3] deals with advanced biliary tract cancer. Description: ABC-04 phase Ib trial: objective response (RECIST v1.1), PFS, deaths. Format: in vivo, patients. To be noted: 75 mg bd + CisGem. The protocol:
Patients were assessed prior to starting treatment and at regular intervals throughout treatment. […] All AEs occurring between the date of signing consent and 30 days after the last dose of any trial treatment were recorded. AEs were graded according to CTCAE v 4.03. Blood biochemistry and a full blood count with differential were carried out at the same time points as the physical examinations. […] In addition, prior to registration, an electrocardiogram and echocardiogram, and an ophthalmological examination were required. Disease status was assessed by computed tomography (CT) scan, with or without a liver magnetic resonance (MR) scan, prior to registration, after cycles 4 and 8 and then subsequently every 12 weeks until disease progression. Patients with measurable disease at baseline were assessed for objective response according to RECIST v1.1 [10]. For patients with non-measurable disease, objective response was not assessed and progressive disease was documented by the appearance of new lesions or by symptomatic deterioration.
Tumour responses were assessed according to RECIST version 1.1. The best response across all time points has been reported. For PFS and OS, the time to progression or death was measured from the date of registration. PFS and OS were estimated for the population by the Kaplan-Meier method.

The test system of the next data set is ABC. To be noted: monotherapy 100 mg bd, older formulation; 29 patients with ABC; cited from earlier work.
Setting [4] is: RECIST v1.1, listed as selumetinib.

Where two headings read alike, the source gives them in different places.

On to `O=C(NOCCO)c1cc2nc[nH]c2c(F)c1Nc1ccc(Br)cc1Cl` [N-desmethyl selumetinib], for which, in data set [1] (human), the “AUC(0-t)” value is 347.26 ng·h/mL, the Cmax amounted to 77.16 ng/mL, the time of peak concentration (Tmax) came to 2.00 h and the “decrease of AUC(0-t) in the presence of CisGem” value amounted to 40%. Also, in data set [1] (human), the “decrease of AUC(0-∞) in the presence of CisGem” value came out at 40% and the “decrease of Cmax in the presence of CisGem” value came to 40%. Moreover, the “AUC(0-∞)” value in data set [1] stood at 452.88 ng·h/mL.
With `Cn1cnc2c(F)c(Nc3ccc(Br)cc3Cl)c(C(=O)NOCCO)cc21` [Selumetinib], in “clinical”, the AUC(0-inf) came out at 5650 ng·h/mL and the Tmax was 1.55 h. Further, the “deaths considered related to protocol treatment” value in data set [2] (75 mg bd + CisGem) was “None”. The “recommended dose of selumetinib when combined with CisGem” value in data set [2] (dose de-escalation scheme, patients with ABC) is listed as 75 mg bd. In data set [3], the “Median time from documented best objective response until progression or death” value was 5.9 months and the “median time from documented best objective response until progression or death, best response SD” value was 3.1 months. Also, the “median PFS” value in data set [3] (IQR 5.2 to 13.7) is on record as 6.4 months. Besides, in data set [3] (Kaplan-Meier), the “PFS rate at 6 months” value is 67% and the “PFS rate at 12 months” value amounted to 33%. Further, in data set [3] (RECIST v1.1), the “Best objective response: Complete response” value was found to be 1 N, the “Best objective response: Partial response” value stood at 1 N and the “Best objective response: Stable disease” value is 6 N. In addition, in data set [3] (setting [4]), the “Best objective response: Partial response” value worked out at 3 N and the “Best objective response: Stable disease” value was determined as 5 N. The “Best objective response: Not evaluable” value in data set [3] (RECIST v1.1, total 13) was found to be 5 N. The “patients who had died” value in data set [3] (at the time of the final analysis) is on record as 7 patients. Moreover, in the data set on ABC, the response rate is given as 12%. Besides, the Cmax in data set [1] (human) stood at 1331.33 ng/mL.

Source of the values: PMC4766710 (BMC Cancer, 2016).
